Test results taken from ChEMBL document CHEMBL3243923, “Linked Aryl Aryloxypropanolamines as a new class of lipid catabolis agents” (J Med Chem, 1978).
Calls of active or inactive are those of the source. No cut-off for these calls is given here.

Experiments:
Mus musculus [1] = experiment: Antiobesity activity in mouse assessed as reduction in utero fat at 0.04% administered every day through diet for 10 days measured after day 10 relative to control; type: functional
Mus musculus [2] = experiment: Antiobesity activity in mouse assessed as reduction in utero fat at 0.02% administered every day through diet for 10 days measured after day 10 relative to control; type: functional; parameters: scale not given: the % may be the effect or the level left
Mus musculus [3] = experiment: Antiobesity activity in mouse assessed as reduction in utero fat administered every day through diet for 10 days measured after day 10; type: functional; conditions: 240 h
[4] = Chronic toxicity in po dosed mouse assessed as mortality administered as qd for 21 days; type: organism-based; conditions: in vivo, read-out: MNTD
[5] = Therapeutic index, ratio of MNTD for chronic toxicity in po dosed mouse to ED25 for antiobesity activity in mouse assessed as reduction in utero fat; type: organism-based; conditions: in vivo, read-out: TI
Mus musculus [6] = experiment: Toxicity in mouse assessed as liver hypertrophy at 1000 mg/kg, po administered for 21 days; type: organism-based; parameters: dose 1000 mg/kg, route oral; conditions: in vivo, 504 h

Q: For `CCN(CC)CCCNCC(O)COc1c(C(C)(C)C)cc(/C=C/c2ccccc2)cc1C(C)(C)C` (stereo unspecified), which Activity (Mus musculus [1]) is on record?
A: inactive

Q: Which Activity (Mus musculus [1]) does the source give for `CC(C)(C)c1cc(/C=C/c2ccccc2)cc(C(C)(C)C)c1OCC(O)CNCCO` (stereo unspecified) here?
A: inactive

Q: With `CN(C)CCCNCC(O)COc1c(C(C)(C)C)cc(/C=C/c2ccccc2)cc1C(C)(C)C.Cl` (stereo unspecified) as the compound, how does the Activity (Mus musculus [1]) read?
A: 45%

Q: Which results are given for `CC(C)NCC(O)COc1c(C(C)(C)C)cc(/C=C/c2ccc(Br)cc2)cc1C(C)(C)C` (stereo unspecified)?
A: Activity (Mus musculus [2]): 31%; ED25 (Mus musculus [3]): 34 mg/kg; MTD at 504 h [4]: 150 mg/kg; selectivity ratio [5]: 4.3; Activity (Mus musculus [6]): Non-toxic

Q: For `CC(C)NCC(O)COc1c(C(C)(C)C)cc(/C=C/c2ccccc2Cl)cc1C(C)(C)C` (stereo unspecified), which Activity (Mus musculus [1]) is on record?
A: inactive

Q: Which Activity (Mus musculus [1]) does the source give for `CCNCC(O)COc1c(C(C)(C)C)cc(/C=C/c2ccccc2)cc1C(C)(C)C` (stereo unspecified) here?
A: 24%

Q: Which Activity (Mus musculus [1]) does the source give for `CC(C)(C)c1cc(/C=C/c2ccccc2)cc(C(C)(C)C)c1OCC(O)CNCc1ccccc1` (stereo unspecified) here?
A: inactive

Q: With `CC(C)NCC(O)COc1ccc(Sc2ccc(Cl)cc2)cc1` (stereo unspecified) as the compound, how does the Activity (Mus musculus [1]) read?
A: 22%

Q: Which Activity (Mus musculus [1]) does the source give for `CC(C)(C)NCC(O)COc1c(C(C)(C)C)cc(/C=C/c2ccccc2)cc1C(C)(C)C` (stereo unspecified) here?
A: 20%

Q: Which Activity (Mus musculus [1]) does the source give for `CC(C)NCC(O)COc1c(C(C)(C)C)cc(Sc2ccccc2)cc1C(C)(C)C` (stereo unspecified) here?
A: inactive

Q: With `CC(C)NCC(O)COc1c(C(C)C)cc(/C=C/c2ccccc2)cc1C(C)C` (stereo unspecified) as the compound, how does the Activity (Mus musculus [1]) read?
A: 20%

Q: With `CC(C)NCC(O)COc1c(C(C)(C)C)cc(/C=C/c2ccc(Cl)cc2)cc1C(C)(C)C` (stereo unspecified) as the compound, how does the Activity (Mus musculus [1]) read?
A: 22%

Q: And the ED25 (Mus musculus [3])?
A: 100 mg/kg

Q: And the MTD at 504 h [4]?
A: 100 mg/kg

Q: And the selectivity ratio [5]?
A: 1

Q: What about the Activity (Mus musculus [6]) of the same compound?
A: Non-toxic

Q: What does the source list for `CC(C)NCC(O)COc1c(C(C)(C)C)cc(Oc2ccccc2)cc1C(C)(C)C.O=C(O)/C=C\C(=O)O` (stereo unspecified)?
A: Activity (Mus musculus [1]): 20%; ED25 (Mus musculus [3]): 20 mg/kg; MTD at 504 h [4]: 100 mg/kg; Activity (Mus musculus [6]): Non-toxic

Q: Which Activity (Mus musculus [1]) does the source give for `CCCNCC(O)COc1c(C(C)(C)C)cc(/C=C/c2ccccc2)cc1C(C)(C)C` (stereo unspecified) here?
A: inactive

Q: Which Activity (Mus musculus [1]) does the source give for `CC(C)NCC(O)COc1ccc([S+]([O-])c2ccc(Cl)cc2)cc1` (stereo unspecified) here?
A: inactive

Q: Which Activity (Mus musculus [1]) does the source give for `CC(C)NCC(O)COc1ccc(/C=C/c2ccncc2)cc1` (stereo unspecified) here?
A: 24%

Q: For `CC(C)NCC(O)COc1c(C(C)(C)C)cc(/C=C/c2ccc3c(c2)OCO3)cc1C(C)(C)C` (stereo unspecified), which Activity (Mus musculus [1]) is on record?
A: inactive

Q: Which Activity (Mus musculus [1]) does the source give for `CC(C)NCC(O)COc1c(C(C)(C)C)cc(/C=C/c2ccccc2)cc1C(C)(C)C` (stereo unspecified) here?
A: 39%

Q: Which Activity (Mus musculus [1]) does the source give for `Cc1ccccc1/C=C/c1cc(C(C)(C)C)c(OCC(O)CNC(C)C)c(C(C)(C)C)c1` (stereo unspecified) here?
A: 42%

Q: For `CCc1cc(/C=C/c2ccccc2F)cc(CC)c1OCC(O)CNC(C)C` (stereo unspecified), which Activity (Mus musculus [1]) is on record?
A: 37%

Q: Which Activity (Mus musculus [1]) does the source give for `CC(C)NCC(O)COc1c(C(C)(C)C)cc(Oc2ccc(Cl)cc2)cc1C(C)(C)C` (stereo unspecified) here?
A: inactive

Q: For `CC(C)NCC(O)COc1ccc(C#Cc2ccccc2)cc1` (stereo unspecified), which Activity (Mus musculus [1]) is on record?
A: 28%

Q: With `CC(C)NCC(O)COc1ccc(-c2ccc(Cl)cc2)cc1.Cl` (stereo unspecified) as the compound, how does the Activity (Mus musculus [1]) read?
A: 23%

Q: And the ED25 (Mus musculus [3])?
A: 50 mg/kg

Q: And the MTD at 504 h [4]?
A: 25 mg/kg

Q: And the selectivity ratio [5]?
A: 0.5

Q: And the Activity (Mus musculus [6])?
A: Non-toxic

Q: For `CC(C)CNCC(O)COc1c(C(C)(C)C)cc(/C=C/c2ccccc2)cc1C(C)(C)C` (stereo unspecified), which Activity (Mus musculus [1]) is on record?
A: inactive

Q: For `CCc1cc(/C=C/c2ccccc2C(F)(F)F)cc(CC)c1OCC(O)CNC(C)C` (stereo unspecified), which Activity (Mus musculus [1]) is on record?
A: 20%

Q: Which Activity (Mus musculus [1]) does the source give for `CC(C)NCC(O)COc1c(C2CCCCC2)cc(/C=C/c2ccccc2)cc1C1CCCCC1.O=C(O)/C=C\C(=O)O` (stereo unspecified) here?
A: 27%

Q: What about the ED25 (Mus musculus [3]) of the same compound?
A: 38 mg/kg

Q: What about the MTD at 504 h [4] of the same compound?
A: 100 mg/kg

Q: And the Activity (Mus musculus [6])?
A: Non-toxic

Q: Which Activity (Mus musculus [1]) does the source give for `CC(C)NCC(O)COc1c(C(C)(C)C)cc(S(=O)(=O)c2ccc(Cl)cc2)cc1C(C)(C)C` (stereo unspecified) here?
A: inactive

Q: With `COc1ccc(-c2cc(C(C)(C)C)c(OCC(O)CNC(C)C)c(C(C)(C)C)c2)cc1` (stereo unspecified) as the compound, how does the Activity (Mus musculus [1]) read?
A: inactive

Q: Which Activity (Mus musculus [1]) does the source give for `CC(C)NCC(O)COc1c(C(C)(C)C)cc(C#Cc2ccccc2)cc1C(C)(C)C.O=C(O)/C=C\C(=O)O` (stereo unspecified) here?
A: 25%

Q: Which Activity (Mus musculus [1]) does the source give for `CCC(C)c1cc(/C=C/c2ccccc2)cc(C(C)CC)c1OCC(O)CNC(C)C` (stereo unspecified) here?
A: inactive

Q: Which Activity (Mus musculus [1]) does the source give for `CC(C)NCC(O)COc1c(C(C)(C)C)cc(/C=C/c2ccc(F)cc2)cc1C(C)(C)C` (stereo unspecified) here?
A: inactive

Q: With `CC(C)NCC(O)COc1c(C(C)(C)C)cc(Sc2ccc(Cl)cc2)cc1C(C)(C)C` (stereo unspecified) as the compound, how does the Activity (Mus musculus [1]) read?
A: inactive

Q: Which Activity (Mus musculus [1]) does the source give for `CNCC(O)COc1c(C(C)(C)C)cc(/C=C/c2ccccc2)cc1C(C)(C)C.O.O=C(O)C(=O)O` (stereo unspecified) here?
A: 44%
